Test results as given in PubChem BioAssay AID248 (DTP/NCI, 2004).
Several values for one entry are separate records, joined by “and”; a condition that tells them apart may be missing. Equal values may be shown once. Toxic doses and inconclusive results are not listed. Square brackets hold non-standard residues; d marks the D form. Peptide text beside a SMILES is read from it. * marks the point of attachment. ξ: configuration not given here. Cbz = O=C(OCc1ccccc1)*; ξL = CC(C)CC(N)C(=O)O

System: L1210 leukemia ip in BDF1 mice, survival T/C
Assay: NCI In Vivo Anticancer Drug Screen. Data for tumor model L1210 Leukemia (intraperitoneal) in B6D2F1 (BDF1) mice
Conditions: endpoint: mean survival time, higher = longer survival
Summary of the method: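 Mice bearing the transplanted tumor received compound or vehicle. Survival of the treated group was divided by that of the vehicle-treated control group to give the ratio.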

[1] = dose: 50.0 mg/kg/injection, schedule: Q04DX003 (ip), vehicle: saline
[2] = dose: 100.0 mg/kg/injection, schedule: Q01DX001 (ip), vehicle: saline
[3] = dose: 100.0 mg/kg/injection, schedule: Q04DX003 (ip), vehicle: saline
[4] = dose: 200.0 mg/kg/injection, schedule: Q01DX001 (ip), vehicle: saline
[5] = dose: 200.0 mg/kg/injection, schedule: Q04DX003 (ip), vehicle: saline
[6] = dose: 400.0 mg/kg/injection, schedule: Q01DX001 (ip), vehicle: saline
[7] = dose: 50.0 mg/kg/injection, schedule: Q04DX002 (sc), vehicle: olive oil, sesame oil, peanut oil
[8] = dose: 100.0 mg/kg/injection, schedule: Q04DX002 (sc), vehicle: olive oil, sesame oil, peanut oil
[9] = dose: 200.0 mg/kg/injection, schedule: Q04DX002 (sc), vehicle: olive oil, sesame oil, peanut oil
[10] = dose: 50.0 mg/kg/injection, schedule: Q04DX002 (ip), vehicle: Klucel (hydroxypropylcellulose) (HPC)
[11] = dose: 100.0 mg/kg/injection, schedule: Q04DX002 (ip), vehicle: Klucel (hydroxypropylcellulose) (HPC)
[12] = dose: 200.0 mg/kg/injection, schedule: Q04DX002 (ip), vehicle: Klucel (hydroxypropylcellulose) (HPC)
[13] = dose: 50.0 mg/kg/injection, schedule: Q01DX009 (ip), vehicle: saline with Tween-80
[14] = dose: 100.0 mg/kg/injection, schedule: Q01DX009 (ip), vehicle: saline with Tween-80
[15] = dose: 100.0 mg/kg/injection, schedule: Q04DX003 (ip), vehicle: saline with Tween-80
[16] = dose: 200.0 mg/kg/injection, schedule: Q04DX003 (ip), vehicle: saline with Tween-80
[17] = dose: 400.0 mg/kg/injection, schedule: Q04DX003 (ip), vehicle: saline with Tween-80
[18] = dose: 100.0 mg/kg/injection, schedule: Q04DX003 (ip), vehicle: Klucel (hydroxypropylcellulose) (HPC)
[19] = dose: 200.0 mg/kg/injection, schedule: Q04DX003 (ip), vehicle: Klucel (hydroxypropylcellulose) (HPC)
[20] = dose: 50.0 mg/kg/injection, schedule: Q01DX009 (ip), vehicle: saline
[21] = dose: 400.0 mg/kg/injection, schedule: Q04DX003 (ip), vehicle: Klucel (hydroxypropylcellulose) (HPC)
[22] = dose: 100.0 mg/kg/injection, schedule: Q01DX009 (ip), vehicle: saline
[23] = dose: 200.0 mg/kg/injection, schedule: Q01DX009 (ip), vehicle: saline

`OC1/C(=C/c2ccco2)CCC2CCCCC21` (stereo not drawn) was tested, and the T/C (dose: 100.0 mg/kg/injection, schedule: Q01DX001 (ip), vehicle: Klucel (hydroxypropylcellulose) (HPC)) was 101 % of control, the T/C (dose: 200.0 mg/kg/injection, schedule: Q01DX001 (ip), vehicle: Klucel (hydroxypropylcellulose) (HPC)) was 98 % of control and the T/C (dose: 400.0 mg/kg/injection, schedule: Q01DX001 (ip), vehicle: Klucel (hydroxypropylcellulose) (HPC)) was 90 % of control.

`CCCCCCCC1CCC(=O)O1` (stereo not drawn) was tested, and the T/C [1] was 103 % of control, the T/C [2] was 95 % of control and the T/C [3] was 105 % of control. For the same compound, the T/C [4] was 98 % of control, the T/C [5] was 97 % of control and the T/C [6] was 100 % of control.

In the case of `CCCCOC(=O)/C=C/C(=O)[O][Sn]([CH2]CCC)([CH2]CCC)[O]C(=O)/C=C/C(=O)OCCCC`, the T/C (dose: 12.5 mg/kg/injection, schedule: Q01DX009 (sc), vehicle: olive oil, sesame oil, peanut oil) is reported as 98 % of control, the T/C (dose: 25.0 mg/kg/injection, schedule: Q01DX009 (sc), vehicle: olive oil, sesame oil, peanut oil) is reported as 108 % of control and the T/C (dose: 25.0 mg/kg/injection, schedule: Q04DX002 (sc), vehicle: olive oil, sesame oil, peanut oil) is reported as 97 % of control. The T/C (dose: 50.0 mg/kg/injection, schedule: Q01DX009 (sc), vehicle: olive oil, sesame oil, peanut oil) was 95 % of control, the T/C [7] was 94 % of control and the T/C [8] was 96 % of control and 106 % of control. For the same compound, the T/C [9] was 89 % of control.

With `CCOC(=O)Nc1cc2c(c(N)n1)N=C(CN(C)c1ccccc1)CN2` the T/C (dose: 5.0 mg/kg/injection, schedule: Q01DX009 (ip), vehicle: Klucel (hydroxypropylcellulose) (HPC)) was 101 % of control, the T/C (dose: 6.25 mg/kg/injection, schedule: Q01DX009 (ip), vehicle: Klucel (hydroxypropylcellulose) (HPC)) was 116 % of control and the T/C (dose: 12.5 mg/kg/injection, schedule: Q01DX009 (ip), vehicle: Klucel (hydroxypropylcellulose) (HPC)) was 118 % of control. The T/C (dose: 15.0 mg/kg/injection, schedule: Q01DX009 (ip), vehicle: Klucel (hydroxypropylcellulose) (HPC)) was 98 % of control, the T/C (dose: 25.0 mg/kg/injection, schedule: Q01DX009 (ip), vehicle: Klucel (hydroxypropylcellulose) (HPC)) was 120 % of control and the T/C [10] was 196 % of control. The T/C [11] was 183 % of control and the T/C [12] was 96 % of control.

With `CC(C)(CBr)COS(=O)(=O)c1ccc(Br)cc1` the T/C [13] was 89 % of control and the T/C [14] was 91 % of control.

For `C[C@]12CCCC[C@@H]1CC[C@@H]1[C@@H]2[C@@H](O)C[C@]2(C)[C@@H](O)CC[C@@H]12`, the T/C [13] was 98 % of control, the T/C [14] was 90 % of control and the T/C (dose: 200.0 mg/kg/injection, schedule: Q01DX009 (ip), vehicle: saline with Tween-80) was 95 % of control.

For `CC(C)(C)NC(=O)Nc1cccc(OC(=O)NC(C)(C)C)c1`, the T/C [15] was 90 % of control, the T/C [16] was 87 % of control and the T/C [17] was 87 % of control.

For `CCc1nc(N[N+](=O)[O-])nc(N)c1-c1ccccc1O`, the T/C [10] was 97 % of control, the T/C [11] was 93 % of control and 111 % of control and the T/C [12] was 97 % of control. The T/C (dose: 400.0 mg/kg/injection, schedule: Q04DX002 (ip), vehicle: Klucel (hydroxypropylcellulose) (HPC)) was 90 % of control.

For `O=C(NCCCl)Nc1cccc2c1CCC2`, the T/C [18] was 93 % of control and the T/C [19] was 86 % of control.

In the case of `Cc1cccc(Cl)c1NC(=O)C(C)N1CCCC1` (stereo not drawn), the T/C (dose: 12.5 mg/kg/injection, schedule: Q01DX009 (ip), vehicle: saline) is reported as 101 % of control, the T/C (dose: 25.0 mg/kg/injection, schedule: Q01DX009 (ip), vehicle: saline) is reported as 98 % of control and the T/C [20] is reported as 93 % of control.

In the case of `N#C/C(=C\c1c(O)ccc2ccccc12)c1ccc([N+](=O)[O-])cc1`, the T/C (dose: 66.0 mg/kg/injection, schedule: Q01DX009 (ip), vehicle: saline with Tween-80) is reported as 89 % of control, the T/C [14] is reported as 91 % of control and the T/C (dose: 150.0 mg/kg/injection, schedule: Q01DX009 (ip), vehicle: saline with Tween-80) is reported as 86 % of control.

`C[n+]1c(-c2cccc3ccccc23)c2cc([N+](=O)[O-])ccc2c2ccccc21` was tested, and the T/C (dose: 6.25 mg/kg/injection, schedule: Q01DX009 (ip), vehicle: water) was 104 % of control, the T/C (dose: 12.5 mg/kg/injection, schedule: Q01DX009 (ip), vehicle: water) was 100 % of control and the T/C (dose: 12.5 mg/kg/injection, schedule: Q04DX003 (ip), vehicle: water) was 98 % of control. For the same compound, the T/C (dose: 25.0 mg/kg/injection, schedule: Q04DX003 (ip), vehicle: water) was 105 % of control and the T/C (dose: 50.0 mg/kg/injection, schedule: Q04DX003 (ip), vehicle: water) was 93 % of control.

`c1ccc(N/N=C(\Oc2ccccc2)c2ccccc2)cc1` was tested, and the T/C [15] was 93 % of control, the T/C [16] was 96 % of control and the T/C [17] was 96 % of control.

For `CCC(Cl)COP(=O)(OCC(Cl)CC)C(OP(=S)(OCC(Cl)CC)OCC(Cl)CC)C(C)C` (stereo not drawn), the T/C [7] was 104 % of control, the T/C [8] was 118 % of control and the T/C [9] was 110 % of control.

`Cc1cc(=O)[nH]c2c(OCOc3cccc4c(C)cc(=O)[nH]c34)cccc12` was tested, and the T/C [18] was 97 % of control, the T/C [19] was 100 % of control and the T/C [21] was 94 % of control.

With `CC(=O)CCCCC(=O)O` the T/C [22] was 111 % of control, the T/C [3] was 96 % of control and the T/C [23] was 89 % of control. For the same compound, the T/C [5] was 93 % of control, the T/C (dose: 400.0 mg/kg/injection, schedule: Q01DX009 (ip), vehicle: saline) was 94 % of control and the T/C (dose: 400.0 mg/kg/injection, schedule: Q04DX003 (ip), vehicle: saline) was 100 % of control.

With `CCCC[Si]CCCC` the T/C (dose: 25.0 mg/kg/injection, schedule: Q01DX001 (ip), vehicle: saline with Tween-80) was 103 % of control, the T/C (dose: 25.0 mg/kg/injection, schedule: Q01DX009 (ip), vehicle: saline with Tween-80) was 103 % of control and the T/C (dose: 50.0 mg/kg/injection, schedule: Q01DX001 (ip), vehicle: saline with Tween-80) was 110 % of control. For the same compound, the T/C [13] was 101 % of control, the T/C (dose: 100.0 mg/kg/injection, schedule: Q01DX001 (ip), vehicle: saline with Tween-80) was 102 % of control and the T/C [14] was 101 % of control.

In the case of `c1ccc(C(=NC(c2ccccc2)c2ccccc2)c2ccccc2)cc1`, the T/C (dose: 50.0 mg/kg/injection, schedule: Q01DX001 (ip), vehicle: saline) is reported as 98 % of control, the T/C [2] is reported as 98 % of control and the T/C [4] is reported as 96 % of control. For the same compound, the T/C [6] was 98 % of control.

In the case of `Nc1ncns1`, the T/C (dose: 66.0 mg/kg/injection, schedule: Q04DX003 (ip), vehicle: saline) is reported as 104 % of control, the T/C [3] is reported as 117 % of control and the T/C (dose: 150.0 mg/kg/injection, schedule: Q04DX003 (ip), vehicle: saline) is reported as 120 % of control.

In the case of `COc1cc(O)c(/C=N\N=C\c2ccco2)c(OC)c1`, the T/C (dose: 75.0 mg/kg/injection, schedule: Q01DX001 (ip), vehicle: saline) is reported as 90 % of control, the T/C (dose: 150.0 mg/kg/injection, schedule: Q01DX001 (ip), vehicle: saline) is reported as 90 % of control and the T/C (dose: 300.0 mg/kg/injection, schedule: Q01DX001 (ip), vehicle: saline) is reported as 86 % of control.

In the case of `NC(=O)C1C(=O)OC2(CCCC2)C1c1ccccc1` (stereo not drawn), the T/C [18] is reported as 101 % of control, the T/C [19] is reported as 93 % of control and the T/C [21] is reported as 97 % of control.

`CCCCCCCCCCCCCCCCCCNC(=S)SCCCC` was tested, and the T/C (dose: 400.0 mg/kg/injection, schedule: Q04DX002 (ip), vehicle: saline + alcohol) was 100 % of control.

For `CCNCCNCC(Cc1ccccc1)c1ccccc1` (stereo not drawn), the T/C (dose: 25.0 mg/kg/injection, schedule: Q04DX002 (ip), vehicle: saline) was 86 % of control, the T/C (dose: 50.0 mg/kg/injection, schedule: Q04DX002 (ip), vehicle: saline) was 105 % of control and the T/C (dose: 100.0 mg/kg/injection, schedule: Q04DX002 (ip), vehicle: saline) was 93 % of control and 92 % of control.

With `COC(=O)CNC(=O)C(CC(C)C)NC(=O)OCc1ccccc1` (stereo not drawn) (Cbz-[ξL]-Gly-OMe) the T/C [20] was 98 % of control, the T/C [1] was 94 % of control and the T/C [2] was 97 % of control. The T/C [22] was 100 % of control, the T/C [3] was 91 % of control and the T/C [4] was 94 % of control. For the same compound, the T/C [23] was 98 % of control and the T/C [5] was 96 % of control.

In the case of `Cc1ccc(-n2cnnn2)cc1`, the T/C [2] is reported as 103 % of control, the T/C [4] is reported as 104 % of control and the T/C [6] is reported as 103 % of control.
